Assay results reported in US9550763B2, “Heterocyclic ring and carbocyclic derivative” (Shionogi & Co., Ltd., priority 2012, dated 2017).
Like-named read-outs stand apart in the source and are kept apart here.

Molecular target: human P2X3 receptor (Homo sapiens (Human), UniProt P56373)
Test: Evaluation of human P2X3 receptor inhibitory activity (Test Example 1-2, FLIPR 384, 384-well, 150 nM ATP)
Type: cell-based
Protocol: Stably expressing cell line (C6BU-1 cell transfected with human P2X3 receptor gene (GenBank accession number Y07683) was used. The cells were seeded in a 384-well microtiter plate at a concentration of 3000 cells/well and cultured in the medium (7.0% fetal bovine serum, 7.0% horse serum, 1% antibiotic and antifungal in DMEM) for one day at 37° C. under 5% carbon dioxide atmosphere. The medium was replaced with 4 μM Fluo-3-AM solution (20 mM HEPES, […], 5.27 mM KCl, 0.9 mM MgCl2, 1.26 mM CaCl2, 5.6 mM D-glucose, 2.5 mM probenecid, 0.5% BSA, and 0.04% Pluronic F-127, pH 7.5) and incubated at 37° C. under 5% dioxide carbon atmosphere for one hour. The plate was washed with washing buffer (20 mM HEPES, 137 mM NaCl, 5.27 mM KCl, 0.9 mM MgCl2, 1.26 mM CaCl2, 5.6 mM D-glucose, 2.5 mM probenecid, pH7.5), and each well was added with 20 μL of this buffer. The plate was placed in High-Throughput Screening System FLIPR 384 (Molecular Device Co.). Measurement of fluorescence intensity by FLIPR 384 was started, and 20 μL of DMSO solutions containing different concentrations of the test compound as prepared by dilution with dilution buffer (20 mM HEPES, 137 mM NaCl, 5.27 mM KCl, 0.9 mM MgCl2, 1.26 mM CaCl2, 5.6 mM D-glucose, 2.5 mM probenecid, 0.1% Pluronic F-127, pH 7.5) were dispensed to each well through the built-in automatic dispenser. Five minutes after, 150 nM ATP solution (25 μL) prepared by dilution with the dilution buffer was dispensed through the built-in automatic dispenser, and the measurement of fluorescence intensity was continued for 4 min. For each well, the specific maximum fluorescence intensity was calculated as the ratio of the maximum fluorescence intensity after addition of the ATP solution to the fluorescence intensity at the starting of the measurement. The 50% inhibitory concentration (IC50) was calculated under the assumption that the specific maximum fluorescence intensity without test compound is 0% inhibition and that the specific maximum fluorescence intensity when the dilution buffer was added in place of ATP solution is 100% inhibition, to evaluate the inhibitory activity of the test compound. The specific maximum fluorescence intensity and IC50 were calculated using Spotfire (Science & Technology Systems, Inc.)
The data of the compounds I-001 to I-300 are the results by the method mentioned in Test Example 1-1, and the data of the compounds I-301 to I-483 are the results by the method mentioned in Test Example 1-2.

[1] = human P2X3 receptor in C6BU-1 cells, Test Example 1-2 (compounds I-301 to I-483), read-out: P2X3 IC50
[2] = C6BU-1 cell transfected with human P2X3 receptor gene, method of Test Example 1-2 (compounds I-301 to I-483), read-out: IC50 (human P2X3 receptor inhibitory activity)

human P2X3 receptor, sequence (P56373 whole entry): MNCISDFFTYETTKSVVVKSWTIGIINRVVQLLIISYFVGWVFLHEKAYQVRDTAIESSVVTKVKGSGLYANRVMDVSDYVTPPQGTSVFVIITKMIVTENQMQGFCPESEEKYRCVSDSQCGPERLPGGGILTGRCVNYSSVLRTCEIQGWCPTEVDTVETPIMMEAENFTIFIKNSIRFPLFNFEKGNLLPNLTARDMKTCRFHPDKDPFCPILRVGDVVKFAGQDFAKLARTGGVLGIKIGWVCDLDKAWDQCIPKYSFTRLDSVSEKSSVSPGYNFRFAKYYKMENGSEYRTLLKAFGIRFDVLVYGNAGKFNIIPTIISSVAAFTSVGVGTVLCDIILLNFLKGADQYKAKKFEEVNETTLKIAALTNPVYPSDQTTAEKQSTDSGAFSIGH

Row | SMILES | IC50 [1] [nM] | IC50 [2] [nM]
1 | O=C(NCc1ccco1)c1cn(Cc2ccc(Cl)cc2)c(Nc2ccc(Oc3cccc(F)n3)cc2)nc1=O [Compound I-369] | 120 | –
2 | O=C(NC1CCCC1)c1cn(Cc2ccc(Cl)cc2)c(Nc2ccc(Oc3cccc(F)n3)cc2)nc1=O [Compound I-376] | 40 | –
3 | O=C(O)c1cccc(Oc2ccc(/N=c3\[nH]cc(-c4ccccn4)c(=O)n3Cc3ccc(Cl)cc3)cc2)n1 [Compound I-480] | 7 | –
4 | O=c1c(-c2ncno2)c[nH]/c(=N\c2ccc(Oc3ccon3)cc2)n1Cc1ccc(Cl)cc1 [Compound I-449] | 179 | –
5 | CCOC(=O)c1cnc(Oc2ccc(/N=c3\[nH]cc(-c4nc(C)no4)c(=O)n3Cc3ccc(Cl)cc3)cc2)s1 [Compound I-311] | 31 | –
6 | O=C(O)c1cccc(Oc2ccc(/N=c3\[nH]cc(-c4ccccc4)c(=O)n3Cc3ccc(Cl)cc3)cc2)n1 [Compound I-422] | 3 | –
7 | CSc1cccc(Oc2ccc(/N=c3\[nH]cc(N4CCCC4=O)c(=O)n3Cc3ccc(Cl)cc3)cc2)n1 [Compound I-334] | 838 | –
8 | CC(C)c1c[nH]/c(=N\c2ccc(Oc3ccc(C(=O)O)cn3)cc2)n(Cc2ccc(Cl)cc2)c1=O [Compound I-400] | 16 | –
9 | Cc1nnc(-c2c[nH]/c(=N\c3ccc(Oc4cccc(C(=O)O)n4)cc3)n(Cc3ccc(Cl)cc3)c2=O)o1 [Compound I-328] | 11 | –
10 | COc1cn(Cc2ccc(Cl)cc2)c(Nc2ccc(Oc3cccc(C#N)n3)cc2)nc1=O [Compound I-350] | 405 | –
11 | COC(=O)[C@H](C)[C@H](C)n1c(=O)cc(Nc2ccc(Oc3ccc(F)cn3)cc2)n(Cc2ccc(Cl)cc2)c1=O [Compound I-323] | 26 | –
12 | O=c1c(-c2nnc(CO)o2)c[nH]/c(=N\c2ccc(Oc3ccon3)cc2)n1Cc1ccc(Cl)cc1 [Compound I-399] | 36 | –
13 | O=C(Nc1cnoc1)c1cn(Cc2ccc(Cl)cc2)c(Nc2ccc(Oc3cccc(F)n3)cc2)nc1=O [Compound I-397] | 56 | –
14 | Cc1noc(-c2c[nH]/c(=N\c3ccc(Oc4ncc(C(=O)O)s4)cc3)n(Cc3ccc(Cl)cc3)c2=O)n1 [Compound I-314] | 10 | –
15 | Cc1nnc(-c2c[nH]/c(=N\c3ccc(Oc4cccc(C(N)=O)n4)cc3)n(Cc3ccc(Cl)cc3)c2=O)o1 [Compound I-329] | 20 | –
16 | CCC(=O)Nc1c[nH]/c(=N\c2ccc(Oc3ccc(C#N)nn3)cc2)n(Cc2ccc(Cl)cc2)c1=O [Compound I-306] | 19 | –
17 | Cc1noc(-c2c[nH]/c(=N\c3ccc(Oc4ccc(C(N)=O)nn4)cc3)n(Cc3ccc(Cl)cc3)c2=O)n1 [Compound I-315] | 10 | –
18 | COC(=O)[C@@H](C)Cn1c(=O)cc(Nc2ccc(Oc3ccc(F)cn3)c(C)n2)n(Cc2ccc(Cl)cc2)c1=O [Compound I-362] | 7 | –
19 | CCn1c(=O)[nH]c(Nc2ccc(Oc3cccc(C(N)=O)n3)cc2)c(Cc2ccc(Cl)cc2)c1=O [Compound I-458] | 15 | –
20 | O=C(O)c1cn(Cc2ccc(Cl)cc2)c2cc(Nc3ccc(Oc4ccc(F)cn4)cc3)ccc2c1=O [Compound I-461] | – | < 30000
21 | O=C(NCC(=O)N1CCCCC1)c1cn(Cc2ccc(Cl)cc2)c(Nc2ccc(Oc3cccc(F)n3)cc2)nc1=O [Compound I-382] | 9 | –
22 | CC(C)(C)c1c[nH]/c(=N\c2ccc(Oc3cccc(C(=O)O)n3)cc2)n(Cc2ccc(Cl)cc2)c1=O [Compound I-477] | 5 | –
23 | O=C(NC[C@H]1CCCO1)c1cn(Cc2ccc(Cl)cc2)c(Nc2ccc(Oc3cccc(F)n3)cc2)nc1=O [Compound I-387] | 14 | –
24 | O=C(Nc1cn[nH]c1)c1cn(Cc2ccc(Cl)cc2)c(Nc2ccc(Oc3cccc(F)n3)cc2)nc1=O [Compound I-395] | 22 | –
25 | CC(C)c1c[nH]/c(=N\c2ccc(Oc3ccnc(C(=O)O)c3)cc2)n(Cc2ccc(Cl)cc2)c1=O [Compound I-409] | 24 | –
26 | NNC(=O)c1c[nH]/c(=N\c2ccc(Oc3ccon3)cc2)n(Cc2ccc(Cl)cc2)c1=O [Compound I-423] | 81 | –
27 | O=C(NC1CCOCC1)c1cn(Cc2ccc(F)cc2F)c(Nc2ccc(Oc3cccc(F)n3)cc2)nc1=O [Compound I-402] | 9 | –

Row | SMILES | IC50 [1] [nM] | IC50 [2] [nM]
28 | CCn1c(=O)cc(Nc2ccc3nc(C(F)F)sc3c2)n(Cc2ccc(Cl)cc2)c1=O [Compound I-326] | 328 | –
29 | CC(c1ccc(Cl)cc1)n1cc(C(=O)NC2CCOCC2)c(=O)nc1Nc1ccc(Oc2cccc(F)n2)cc1 (stereo not drawn) [Compound I-358] | 23 | –
30 | Cc1cc(CNC(=O)c2cn(Cc3ccc(Cl)cc3)c(Nc3ccc(Oc4cccc(F)n4)cc3)nc2=O)no1 [Compound I-420] | 88 | –
31 | CC(C)(C)c1cc(Nc2ccc(Oc3cccc(C(N)=O)n3)cc2)n(Cc2ccc(Cl)cc2)n1 [Compound I-468, 3-t-butyl-1-(4-chlorobenzyl)-5-[4-(6-carbamoyl-2-pyridyloxy)phenylamino]pyrazole] | – | < 30000
32 | CCC(=O)Nc1c[nH]/c(=N\c2ccc(Oc3ccc(C(=O)OC)nn3)cc2)n(Cc2ccc(Cl)cc2)c1=O [Compound I-305] | 5 | –
33 | CCC(=O)Nc1c[nH]/c(=N\c2ccc(Oc3cc(C)c(Cl)nn3)cc2)n(Cc2ccc(Cl)cc2)c1=O [Compound I-432] | 12 | –
34 | CC1(NC(=O)c2cn(Cc3ccc(Cl)cc3)c(Nc3ccc(Oc4cccc(F)n4)cc3)nc2=O)CCOCC1 [Compound I-385] | 16 | –
35 | Cc1nnc(-c2c[nH]/c(=N\c3ccc(Oc4ccon4)cc3)n(Cc3ccc(Cl)cc3)c2=O)o1 [Compound I-349] | 73 | –
36 | O=C1CCCN1C1=CN[C@@H](Nc2ccc(Oc3ccon3)cc2)N(Cc2ccc(Cl)cc2)C1=O [Compound I-356] | 212 | –
37 | CCCc1c[nH]/c(=N\c2ccc(Oc3cccc(C#N)n3)cc2)n(Cc2ccc(Cl)cc2)c1=O [Compound I-434] | 193 | –
38 | CCC(=O)Nc1c[nH]/c(=N\c2ccc(Oc3cccc(CCC(=O)OC)c3)cc2)n(Cc2ccc(Cl)cc2)c1=O [Compound I-330] | 366 | –
39 | O=c1cc[nH]/c(=N\c2ccc(Oc3ccon3)cc2)n1Cc1ccc(Cl)cc1 [Compound I-447] | – | < 30000
40 | O=C(O)c1cccc(Oc2ccc(Nc3nc4ccccc4n3Cc3ccc(F)cc3)cc2)n1 [Compound I-470] | – | < 30000
41 | NC(=O)c1cccc(Oc2ccc(/N=c3\[nH]cc(N4CCCC4=O)c(=O)n3Cc3ccc(Cl)cc3)cc2)n1 [Compound I-335] | 227 | –
42 | Cc1nc(Nc2cc(=O)n(C(C)C)c(=O)n2Cc2ccc(Cl)cc2)ccc1Oc1cccc(C#N)c1 [Compound I-340] | 8 | –
43 | O=C(NC1(CO)CCOCC1)c1cn(Cc2ccc(Cl)cc2)c(Nc2ccc(Oc3cccc(F)n3)cc2)nc1=O [Compound I-390] | 59 | –
44 | O=C(NCc1ccccc1)c1c[nH]/c(=N\c2ccc(Oc3ccon3)cc2)n(Cc2ccc(Cl)cc2)c1=O [Compound I-451] | 104 | –
45 | C[C@@H](C(=O)O)[C@H](C)n1c(=O)cc(Nc2ccc(Oc3ccc(F)cn3)cc2)n(Cc2ccc(Cl)cc2)c1=O [Compound I-325] | 11 | –
46 | CCCn1c(=O)cc(Nc2ccc(Oc3cccc(C#N)c3)c(C)n2)n(Cc2ccc(C)cc2)c1=O [Compound I-473] | 29 | –
47 | N#Cc1cccc(Oc2ccc(/N=c3\[nH]cc(N4CCCC4=O)c(=O)n3Cc3ccc(Cl)cc3)cc2)n1 [Compound I-332] | 179 | –
48 | CCn1c(=O)[nH]c(Nc2ccc(Oc3cccc(C#N)n3)cc2)c(Cc2ccc(Cl)cc2)c1=O [Compound I-456, 5-(4-chlorobenzyl)-6-[4-(6-cyano-2-pyridyloxy)phenylamino]-3-ethylpyrimidin-2,4(1H,3H)-dione] | 9 | –
49 | O=C(NCc1ncco1)c1cn(Cc2ccc(Cl)cc2)c(Nc2ccc(Oc3cccc(F)n3)cc2)nc1=O [Compound I-384] | 60 | –
50 | C#CCNC(=O)c1c[nH]/c(=N\c2ccc(Oc3ccon3)cc2)n(Cc2ccc(Cl)cc2)c1=O [Compound I-344] | 4 | –
51 | Cc1noc(C)c1NC(=O)c1cn(Cc2ccc(Cl)cc2)c(Nc2ccc(Oc3cccc(F)n3)cc2)nc1=O [Compound I-377] | 37 | –
52 | COc1cn(Cc2ccc(Cl)cc2)c(Nc2ccc(Oc3cccc(C(=O)O)n3)cc2)nc1=O [Compound I-404] | 102 | –
53 | CC(C)n1ccc(Nc2ccc(Oc3cccc(C(N)=O)n3)cc2)c(Cc2ccc(Cl)cc2)c1=O [Compound I-467] | – | < 30000
54 | CCC(=O)Nc1c[nH]/c(=N\c2ccc(Oc3cccc(CC(=O)OC)c3)cc2)n(Cc2ccc(Cl)cc2)c1=O [Compound I-331] | 309 | –
